The values below come from US20120309753A1, “METHOD OF DISSOLVING ANTIFUNGAL AGENT, AND COMPOSITIONS WITH A HIGH CONCENTRATION OF ANTIFUNGAL AGENT, SUITABLE FOR APPLICATION TO THE NAIL” (GALDERMA RESEARCH & DEVELOPMENT, priority 2009, published 2012).

Each structure is given as a SMILES string. Structures can show the parent of a compound that is named as a salt. Where two headings read alike, the source gives them in different places.

A short description of data set [1]: Visual solubility of terbinafine HCl in solvent systems (Method 1). Type of data set: physicochemical. The procedure:
Terbinafine HCl is weighed out accurately into a 20 ml flask and then the solvents are added. The flask is subsequently placed, with magnetic stirring, in a chamber thermostated at 20° C., for 16 h. If some of the active ingredient has not dissolved, a further addition of solvent is made. The flask is then placed again, with magnetic stirring, in the thermostated chamber, for 16 h, until dissolution is complete. If this is not so, the preceding step is repeated.

How the values of data set [2] were obtained: Different solubility tests on terbinafine HCl were carried out in different solvent systems. The solubility was both estimated visually by Method 1 below, then quantified by HPLC assay by Method 2 below.
Weigh out precisely approximately 15 mg of terbinafine HCl into a 50 ml volumetric flask. Dissolve in the diluent and make up to the volume with the same solvent. Prepare the solution in duplicate (A1, A2)
Dilute solution A to 1/5 in the diluent. Dilution
The standard range is produced by varying the injection volume of solution A, at an equivalent concentration of 4 μg/ml to 120 μg/ml.
2 tests per sample are prepared, of concentrations from 40 μg/ml to 100 μg/ml.
• Column: Sun Fire C18 4.6×100 mm 3.5 μm, fitted with a precolumn. • Column temperature: 30° C. • Flow rate: 1.5 ml/min • Injected volume: 30 μl for the sample solutions • Analysis time: 10 min • Detection at: 285 nm • Gradient:
• Inject a blank sample (diluent) and check that no peak of the blank sample interferes with the terbinafine HCl. • Inject solutions STD1 and STD2 and check that the % deviation between the 2 controls is <2%.

Data set [3] relates to Trichophyton rubrum. The settings on record: oral route, 250 mg/day for 6 months; cited from earlier work.

Take `CN(C/C=C/C#CC(C)(C)C)Cc1cccc2ccccc12` [terbinafine HCl, terbinafine hydrochloride]: the visual solubility in data set [1] (15% water, 70% ethanol, 15% propylene glycol) came out at 25.2 % w/w; in data set [1] (15% water, 70% propylene glycol, 15% ethanol) it was 25.0 % w/w; in data set [1] (30% water, 35% propylene glycol, 35% ethanol), 18.5 % w/w; in data set [1] (33% water, 33% propylene glycol, 33% ethanol), 15.5 % w/w; in data set [1] (50/50 ethanol/propylene glycol mixture, 20° C.), 23.3 % w/w; in data set [1] (binary water/ethanol mixture (50/50), 20° C.) it was 16.7 % w/w. Moreover, the visual solubility came out at 2.2 % w/w in data set [1] (binary water/propylene glycol mixture (50/50), 20° C.); 19.7 % w/w in data set [1] (in ethanol, 20° C.); 8.9 % w/w in data set [1] (in propylene glycol, 20° C.); 0.6 % w/w in data set [1] (in water, 20° C.). Further, the solubility entry in data set [1] (ternary water/propylene glycol/ethanol mixture containing at least 30% of water (Graph 1)) was “greater than 10%”. In addition, the “solubility by HPLC assay” value came to 20.4 % w/w in data set [2] (50/50 ethanol/propylene glycol mixture), 18.09 % w/w in data set [2] (in ethanol) and 10.3 % w/w in data set [2] (in propylene glycol). In data set [2] (ethanol/propylene glycol binary mixture, expected from the single solvents), the “expected solubility by additive effect” value is around 14%.
With `CN(C/C=C/C#CC(C)(C)C)Cc1cccc2ccccc12` [terbinafine], the solubility result in data set [1] (ternary mixture with 40% of water, amount of ethanol greater than or equal to that of propylene glycol) was “greater than 10%”. Moreover, in data set [3], the “efficacy in the treatment of onychomycoses due to Trichophyton rubrum” value is on record as “effective”.
